In paper PMC12349723, “Computationally accelerated identification of P-glycoprotein inhibitors” (PLOS One, 2025):
Several values for one entry are separate records, joined by “and”; a condition that tells them apart may be missing. Identical values can stand only once.

Tests used:
Assay type in all cases: cell-based, human
DU145-TXR cells = assay: MTT viability assay, reversal of MDR (re-sensitization to paclitaxel) in P-gp overexpressing DU145-TXR cells; conditions: DU145-TXR; for % Survival, mean: mean of 8 samples
Description: (§1) The chemotherapeutic sensitive DU145 human prostate cancer cells and the multidrug resistant sub-line, DU145-TXR, were generous gifts from Dr. Evan Keller (University of Michigan, Ann Arbor, MI). The MDR, P-gp overexpressing DU145-TXR cells were maintained under positive selection pressure by supplementing complete medium with 10 nM paclitaxel (Acros Organics, NJ). In addition to the aforementioned cell lines, the chemotherapeutic sensitive A2780 ovarian cancer cells (93112519, Sigma) and the multidrug resistant A2780-ADR (93112520, Sigma) were maintained in complete RPMI media consisting of RPMI-1640 with L-glutamine, 10% fetal bovine serum (FBS; Corning), 100 U/mL penicillin and 100 μg/mL streptomycin in a humidified incubator at 37 °C and 5% CO2. The MDR, P-gp overexpressing A2780-ADR cell line was maintained under positive selection pressure by supplementing complete medium with 100 nM doxorubicin (Fisher Scientific, NJ). The non-cancerous HFL1 (human lung fibroblast) cell line cell line was a generous gift from Dr. Robert Harrod (Southern Methodist University, Dallas, TX) and was maintained in complete F12K media consisting of F12K with 10% fetal bovine serum, 100 U/mL penicillin, and 100 µg/mL streptomycin (Gibco). Flasks and 96 well plates that were used with the non-cancerous line HFL1 were pre-treated with 0.1 mg/ml Collagen Type 1 (Gibco) and rinsed with PBS (Fisher).
(§2) Culture of the DU145, DU145-TXR, and HFL1 cell lines was performed as described in [8]. Culture of the A2780 and A2780-ADR cell lines was performed as described in [9]. MTT assays were performed as described in [8] with minor modifications. LC-MS/MS accumulation assays were performed as described in {Nanayakkara, 2018 #173} [9] with some modifications. […] The inhibitor concentration was lowered to 15 µM here, as the goal of the study was to identify compounds that were effective in reversing MDR at low concentrations, and to determine if the expanded virtual-assisted methods improved on our first-draft attempt. Compounds 56–98 were pre-screened using Resazurin cell viability assays: cells were incubated with 15 µM compound with or without 500 nM PTX for 48 hours, after which cell survival was assessed similar to [39]. Data represent the mean of two separate experiments, with n = 3 samples per experiment (n = 6 total) (S4 Table). The top performing compounds from this initial screen were re-tested with MTT viability assays against DU145-TXR cells, as described below.
(§3) MTT assays measure the reduction of yellow, water soluble 3-(4,5-dimethylthiazol-2-yl)-2,5-diphenyltetrazolium bromide (MTT) to blue, insoluble formazan crystals by cellular reductase processes in living cells. Cells were trypsinized from monolayers and seeded in complete medium in 96 well plates. Cancerous cell lines (DU145, DU145-TXR, A2780, A2780-ADR) were seeded at 3,000 cells per well in complete RPMI medium. The non-cancerous HFL1 line was seeded at 4,000 cells per well in complete F12K medium, in collagen-treated plates (Collagen Type 1, Gibco). Cells were incubated with experimental compounds for 48 hours at 37 °C and 5% CO2 in a humidified incubator. At 48 hours, MTT was added (20 µL/well of 5 mg/mL MTT in PBS) to each well. After incubation for 4 hours, the media was removed, and the formazan crystals were dissolved in 100 µL DMSO per well. Plates containing the semi-adherent A2780 or A2780-ADR lines were spun at 1400 rpm for 3 minutes prior to aspiration of media, and the addition of DMSO. Plates were shaken for 10 minutes at 500 rpm on an Orbital shaker (LabDoctor from MidSci, St Louis, MO). The absorbance was measured at 570 nm using a Bio-Tek Cytation 5 (Bio-Tek, Winooski, VT). The measured absorbance value was correlated with the number of metabolically active cells in that well, corrected for absorbance of media. […]

A2780-ADR cells = assay: MTT viability assay, reversal of MDR in P-gp overexpressing A2780-ADR cells; conditions: A2780-ADR cells; for Mean % Survival: mean of 12 samples; for % Survival (individual sample): single samples (trials 1-3, samples 1-4)
Description: as §1, §2, §3

A2780 cells = assay: MTT viability assay, parental A2780 cells, with or without PTX; conditions: A2780 cells; for Mean % Survival: mean of 8 or 12 samples; for % Survival (individual sample): single samples
Description: as §1, §2, §3

DU145 cells = assay: MTT viability assay, non-P-gp overexpressing DU145 parental line, with or without PTX; conditions: DU145 cells, 48 h
Description: as §1, with “In addition to the aforementioned cell lines, the chemotherapeutic sensitive A2780 ovarian cancer cells (93112519, Sigma) and the multidrug resistant A2780-ADR (93112520, Sigma) were maintained in complete RPMI media consisting of RPMI-1640 with L-glutamine, 10% fetal bovine serum (FBS; Corning), 100 U/mL penicillin and 100 μg/mL streptomycin in a humidified incubator at 37 °C and 5% CO2.” left out
Culture of the DU145, DU145-TXR, and HFL1 cell lines was performed as described in [8]. Culture of the A2780 and A2780-ADR cell lines was performed as described in [9]. MTT assays were performed as described in [8] with minor modifications. […] Data represent the mean of two separate experiments, with n = 3 samples per experiment (n = 6 total) (S4 Table).
MTT assays measure the reduction of yellow, water soluble 3-(4,5-dimethylthiazol-2-yl)-2,5-diphenyltetrazolium bromide (MTT) to blue, insoluble formazan crystals by cellular reductase processes in living cells. Cells were trypsinized from monolayers and seeded in complete medium in 96 well plates. Cancerous cell lines (DU145, DU145-TXR, A2780, A2780-ADR) were seeded at 3,000 cells per well in complete RPMI medium. The non-cancerous HFL1 line was seeded at 4,000 cells per well in complete F12K medium, in collagen-treated plates (Collagen Type 1, Gibco). Cells were incubated with experimental compounds for 48 hours at 37 °C and 5% CO2 in a humidified incubator. At 48 hours, MTT was added (20 µL/well of 5 mg/mL MTT in PBS) to each well. After incubation for 4 hours, the media was removed, and the formazan crystals were dissolved in 100 µL DMSO per well. Plates containing the semi-adherent A2780 or A2780-ADR lines were spun at 1400 rpm for 3 minutes prior to aspiration of media, and the addition of DMSO. Plates were shaken for 10 minutes at 500 rpm on an Orbital shaker (LabDoctor from MidSci, St Louis, MO). The absorbance was measured at 570 nm using a Bio-Tek Cytation 5 (Bio-Tek, Winooski, VT). The measured absorbance value was correlated with the number of metabolically active cells in that well, corrected for absorbance of media. The percent of cell viability (termed ‘survival’ here) was calculated as a percentage of survival of the control condition, which refers to vehicle-treated (DMSO as vehicle) cells, or vehicle-and-chemotherapeutic-treated cells, if testing a compound’s ability to re-sensitize cells to a chemotherapeutic. Percent survival was calculated using the following equation:
% Survival=100 × absorbance of experimental cells/mean absorbance of control treated cells
For DU145-TXR, DU145, HFL1 and A2780 cells – data are the mean ± one standard deviation, 8 samples per compound, from at least two independent trials per compound. […] For A2780-ADR cells, data are the mean ± one standard deviation with 12 samples per compound, from at least two independent trials per compound.
67 compounds were chosen from computational screens for testing in vitro. A) DU145-TXR cells were exposed to 15 µM experimental compound with or without 500 nM of the P-gp substrate and chemotherapeutic paclitaxel (PTX).

[1] = single samples, 2 trials x 4 samples, listed as VPL

SMILES: COc1ccc(CCN(C)CCCC(C#N)(c2ccc(OC)c(OC)c2)C(C)C)cc1OC (stereo not drawn) [VER]
- % Survival, mean (DU145-TXR cells; 15 µM Compound Alone): 86.2%
- % Survival (DU145-TXR cells; 15 µM Compound Alone, trial 1, sample 1): 98%
- % Survival (DU145-TXR cells; 15 µM Compound Alone, trial 1, sample 2): 95%
- % Survival (DU145-TXR cells; 15 µM Compound Alone, trial 1, sample 3): 96%
- % Survival (DU145-TXR cells; 15 µM Compound Alone, trial 1, sample 4): 90%
- % Survival (DU145-TXR cells; 15 µM Compound Alone, trial 2, sample 1): 79%
- % Survival (DU145-TXR cells; 15 µM Compound Alone, trial 2, sample 2): 74%
- % Survival (DU145-TXR cells; 15 µM Compound Alone, trial 2, sample 3): 72%
- % Survival (DU145-TXR cells; 15 µM Compound Alone, trial 2, sample 4): 85%
- % Survival, mean (DU145-TXR cells; 15 µM compound + 500 nM PTX (Paclitaxel, Taxol)): 21.9%
- % Survival (DU145-TXR cells; 15 µM compound + 500 nM PTX (Paclitaxel, Taxol), trial 1, sample 1): 19%
- % Survival (DU145-TXR cells; 15 µM compound + 500 nM PTX (Paclitaxel, Taxol), trial 1, sample 2): 23%
- % Survival (DU145-TXR cells; 15 µM compound + 500 nM PTX (Paclitaxel, Taxol), trial 1, sample 3): 29%
- % Survival (DU145-TXR cells; 15 µM compound + 500 nM PTX (Paclitaxel, Taxol), trial 1, sample 4): 18%
- % Survival (DU145-TXR cells; 15 µM compound + 500 nM PTX (Paclitaxel, Taxol), trial 2, sample 1): 23%
- % Survival (DU145-TXR cells; 15 µM compound + 500 nM PTX (Paclitaxel, Taxol), trial 2, sample 2): 20%
- % Survival (DU145-TXR cells; 15 µM compound + 500 nM PTX (Paclitaxel, Taxol), trial 2, sample 3): 23%
- % Survival (DU145-TXR cells; 15 µM compound + 500 nM PTX (Paclitaxel, Taxol), trial 2, sample 4): 21%
- Mean % Survival (A2780-ADR cells; 15 µM compound + 500 nM PTX): 52.3%
- % Survival (individual sample) (A2780-ADR cells; 15 µM compound + 500 nM PTX): 58% and 57% and 53% and 42% and 41% and 51% and 47%
- Mean % Survival (A2780-ADR cells; 15 µM compound alone): 84.8%
- % Survival (individual sample) (A2780-ADR cells; 15 µM compound alone): 80% and 82% and 85% and 92% and 94% and 95% and 89% and 81% and 77% and 66%
- Mean % Survival (A2780 cells; 15 µM compound + 500 nM PTX): 14.9%
- % Survival (individual sample) (A2780 cells; 15 µM compound + 500 nM PTX): 17% and 18% and 12% and 50% and 11% and 10% and 9%
- Mean % Survival (A2780 cells; 15 µM compound alone): 75.9%
- % Survival (individual sample) (A2780 cells; 15 µM compound alone): 74% and 75% and 86% and 67% and 64% and 83% and 79%

SMILES: COc1ccc(CCN(C)CCCC(C#N)(c2ccc(OC)c(OC)c2)C(C)C)cc1OC (stereo not drawn) [Verapamil, reference compound]
- % Survival, Mean, 15 µM compound + 500 nM PTX (DU145 cells; mean of 8 samples): 8.6%
- % Survival, 15 µM Compound alone (individual samples) (DU145 cells; [1]): 53%
- % Survival, 15 µM compound + 500 nM PTX (individual samples) (DU145 cells; [1]): 7%
- viability at 15 µM (DU145 cells; Homo sapiens, DU-145, 48 h, mean of 8 samples, read-out: % Survival, Mean, 15 µM Compound alone): 45.5%
